# pIC50: −log10 of the molar value.
# Experiments:
# [1] = molecular target: LSD1-CoREST-HDAC1 complex (Homo sapiens, UniProt Q13547); assay: fluorescent deacetylase assay with the LSD1-CoREST-HDAC1 complex (Example 2, FIG. 3A); assay type: biochemical
# Description: The inventors evaluated their preliminary PROTACs in vitro using an established fluorescent deacetylase assay with the LSD1-CoREST-HDAC1 complex. This complex was used as an exemplary HDAC multiprotein complex to determine if such heterobifunctional molecules PROTACs 1-4 can still engage the HDAC enzyme in the context of an intact multiprotein complex.
# (§1) Inhibition tests against LSD1-HDAC-CoREST complex were performed using a two-enzyme fluorescence-based HDAC assay. The inhibitor/PROTACs were dissolved at 50 mM in DMSO, then 1:2 serial dilutions performed using HDAC assay buffer (50 mM Tris pH 7.5, 150 mM NaCl) to afford range of concentrations.
# (§2) The assays were performed in black 96-well plates with a reaction volume of 50 μL per well. All determinations were performed in triplicate. […] After an incubation of 20 minutes at 37° C. and 150 rpm, deacetylation was stopped by the addition of 50 μL of a developing solution containing trypsin (50 mM Tris pH 7.5, 100 mM NaCl, 10 mg/mL trypsin). […] HDAC Activity was calculated by subtracting the average blank fluorescence from the well fluorescence. Graphpad Prism software was utilised to determine IC50 values.
# [2] = molecular target: CoREST (Homo sapiens, UniProt Q13547); assay: HDAC inhibition assay, CoREST complex (Table 1, run under different conditions); assay type: biochemical; conditions: Table 1 conditions (differ from FIG. 3)
# Description: as §1, §2
# [3] = molecular target: NuRD (Homo sapiens, UniProt Q13547); assay: HDAC inhibition assay, NuRD complex (Table 1); assay type: biochemical
# [4] = molecular target: MiDAC (Homo sapiens, UniProt Q13547); assay: HDAC inhibition assay, MiDAC complex (Table 1); assay type: biochemical
# [5] = molecular target: SMRT (Homo sapiens, UniProt O15379); assay: HDAC inhibition assay, SMRT complex (Table 1); assay type: biochemical
# [6] = molecular target: T1, HDAC1 (Homo sapiens, UniProt Q13547); assay: HDAC1 degradation in HCT116 cells, quantitative western blot; assay type: cell-based; conditions: for Dmax: HCT-116, 24 h, read-out: HDAC1 Degrader (% Degradation)
# T1 construct: endogenous in cells; host or cells: HCT116
# Description: (§3) The compounds were screened at 0.1 μM, 1 μM and 10 μM in a HCT116 cell line. The maximum degradation observed irrespective of the concertation was recorded. The screening of the new compounds was done in 6-well plates, 5 mL media, with 400,000 cells per well to increase throughput.
# (§4) HCT116 or mES cells were treated 24 hours after seeding. 24 hours post treatment, cells were harvested, lysed in lysis buffer (50 mM Tris-HCl, 150 mM NaCl, 0.5% NP-40, 0.5% Triton X-100) with protease inhibitor (Sigma, P8340), then incubated on ice for 30 minutes, before being centrifuged (18,000 ref, 15 minutes, 4° C.). The supernatant was collected, and protein concentrations quantified via Bradford Assay using Protein Assay Dye Reagent Concentrate (BIO-RAD). For histone extraction, an equal volume of 0.4 N H2SO4 was added to the pellets and the extracts placed at 4° C. overnight. Following overnight incubation, the tubes were centrifuged (18,000 ref, 15 minutes, 4° C.) and then the supernatant (histone extract) collected.
# (§5) PageRuler™ Plus Prestained Ladder was used for size standards. After gel electrophoresis at 140V for 75-90 minutes the separated proteins were transferred onto nitrocellulose membrane at 30V for 60 minutes. The membranes were probed with primary antibodies (listed below) for 60-90 minutes. Blots were developed with complimentary IRDye conjugated secondary antibodies and the bands visualised using the Odyssey Infrared Imaging System. Image processing and band intensity quantification was performed using Image Studio Lite.
# [7] = molecular target: T2, HDAC2 (Homo sapiens, UniProt Q92769); assay: HDAC2 degradation in HCT116 cells, quantitative western blot; assay type: cell-based; conditions: for Dmax: HCT-116, 24 h, read-out: HDAC 2 Degrader (% Degradation)
# T2 construct: endogenous in cells; host or cells: HCT116
# Description: as §3, §4, §5
# [8] = molecular target: T3, HDAC3 (Homo sapiens, UniProt O15379); assay: HDAC3 degradation in HCT116 cells, quantitative western blot; assay type: cell-based; conditions: for Dmax: HCT-116, 24 h, HCT116, screened at 0.1, 1 and 10 μM, maximum degradation irrespective of concentration, read-out: HDAC 3 degrader (% Degradation)
# T3 construct: endogenous in cells; host or cells: HCT116
# Description: as §3, §4, §5
# [9] = tested on: H3K56ac; assay: H3K56ac levels in E14 mouse embryonic stem cells, quantitative western blot; assay type: cell-based; conditions: E14 mES cells, 24 h; CI-994 40 μM, Panobinostat 30 nM
# Description: The inventors proceeded to assess their compounds effects on HDAC activity in cells.
# To examine the ability of PROTACs 1-4 to reduce HDAC1, 2 and 3 activity in cells they began by measuring H3K56ac using quantitative western blotting (see FIG. 3B).
# as §4
# as §5, with “Western blots were run on NuPAGE™ 4-12% Bis-Tris gels with 20-30 μg of protein or 10 μL of acid-extracted histone loaded per lane, using NuPAGE™ LDS Sample Buffer (4×). PageRuler™” for “PageRuler™”
# [10] = tested on: H3K9ac; assay: Histone H3 Lys9 acetylation levels in HCT116 cells; assay type: cell-based, human; conditions: HCT116, 24 h, 10 μM
# Description: Acetylation levels of Histone H3 Lys9 (H3K9ac), another established residue for HDAC activity, were also determined in HCT116 cells after 24 hours treatment with PROTAC 4.
# as §4
# Western blots were run on NuPAGE™ 4-12% Bis-Tris gels with 20-30 μg of protein or 10 μL of acid-extracted histone loaded per lane, using NuPAGE™ LDS Sample Buffer (4×). PageRuler™ Plus Prestained Ladder was used for size standards. After gel electrophoresis at 140V for 75-90 minutes the separated proteins were transferred onto nitrocellulose membrane at 30V for 60 minutes. […] Image processing and band intensity quantification was performed using Image Studio Lite.
# [11] = tested on: HCT116 colon cancer cell line; assay: Cell cycle / cell death by FACS in HCT116 colon cancer cell line; assay type: cell-based, human; conditions: HCT116, 48 hours, 10 μM
# Description: The inventors then investigated the effect of PROTAC 4 on the cell cycle in the colon cancer HCT116 cell line.
# […] Cells were washed in PBS prior to incubation with […] of propidium iodide and RNase A (10 μg/mL) for 30 min at room temperature in the dark. Samples were analysed using the BD FACSCanto II flow cytometer (BD Biosciences) in the PE A channel with BD FACSDiva software.
# [12] = molecular target: T1, HDAC1; assay: HDAC1 degradation in HCT116 cells, quantitative western blot; assay type: cell-based; conditions: HCT116, 24 h, 10 nM
# [13] = molecular target: T2, HDAC2; assay: HDAC2 degradation in HCT116 cells, quantitative western blot; assay type: cell-based; conditions: HCT116, 24 h, 10 nM
# [14] = tested on: H3K56Ac; assay: Increase of H3K56Ac (Table 1 screen); assay type: cell-based, human; conditions: HCT116 screen; cell line not restated at the table
# Description: as §3, §4
# Western blots were run on NuPAGE™ 4-12% Bis-Tris gels with 20-30 μg of protein or 10 μL of acid-extracted histone loaded per lane, using NuPAGE™ LDS Sample Buffer (4×). PageRuler™ Plus Prestained Ladder was used for size standards. After gel electrophoresis at 140V for 75-90 minutes the separated proteins were transferred onto nitrocellulose membrane at 30V for 60 minutes. The membranes were probed with primary antibodies (listed below) for 60-90 minutes. Blots were developed with complimentary IRDye conjugated secondary antibodies and the bands visualised using the Odyssey Infrared Imaging System. Image processing and band intensity quantification was performed using Image Studio Lite.
# [15] = HCT116, 24 h, 1 μM, remaining level
# [16] = HCT116, screened at 0.1, 1 and 10 μM, maximum degradation irrespective of concentration
# SMRT, sequence (O15379 whole entry): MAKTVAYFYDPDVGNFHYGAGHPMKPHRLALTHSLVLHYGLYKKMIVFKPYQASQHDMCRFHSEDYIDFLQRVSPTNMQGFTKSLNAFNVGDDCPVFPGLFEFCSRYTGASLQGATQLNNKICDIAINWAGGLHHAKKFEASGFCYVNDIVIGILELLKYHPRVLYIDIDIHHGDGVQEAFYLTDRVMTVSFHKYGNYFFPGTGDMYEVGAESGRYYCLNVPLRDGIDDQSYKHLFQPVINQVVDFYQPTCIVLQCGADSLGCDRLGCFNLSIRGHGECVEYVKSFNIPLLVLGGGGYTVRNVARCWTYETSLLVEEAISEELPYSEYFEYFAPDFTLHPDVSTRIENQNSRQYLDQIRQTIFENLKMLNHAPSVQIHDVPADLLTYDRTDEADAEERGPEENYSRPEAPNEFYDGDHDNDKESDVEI
# SMRT, sequence (Q9Y618 389-480 partner limits assumed): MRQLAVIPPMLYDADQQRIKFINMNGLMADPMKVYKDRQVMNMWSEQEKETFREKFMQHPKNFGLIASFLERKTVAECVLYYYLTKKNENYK
# T3 sequence (O15379 whole entry): as the sequence (O15379 whole entry) above
# T2 sequence (Q92769 whole entry): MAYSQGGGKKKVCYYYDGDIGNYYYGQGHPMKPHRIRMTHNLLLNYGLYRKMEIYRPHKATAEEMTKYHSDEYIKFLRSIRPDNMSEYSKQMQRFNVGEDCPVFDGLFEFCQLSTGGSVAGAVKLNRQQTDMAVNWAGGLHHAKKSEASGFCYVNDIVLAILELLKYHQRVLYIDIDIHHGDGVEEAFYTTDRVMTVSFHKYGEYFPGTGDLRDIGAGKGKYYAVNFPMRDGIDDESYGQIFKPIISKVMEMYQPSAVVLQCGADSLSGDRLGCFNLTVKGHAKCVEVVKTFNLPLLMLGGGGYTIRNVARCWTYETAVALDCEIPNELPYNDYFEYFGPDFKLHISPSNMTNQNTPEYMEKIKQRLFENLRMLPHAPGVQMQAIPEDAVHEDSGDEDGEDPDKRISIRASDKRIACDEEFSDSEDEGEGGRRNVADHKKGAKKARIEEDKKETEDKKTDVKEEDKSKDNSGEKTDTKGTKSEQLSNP
# T1 sequence (Q13547 whole entry): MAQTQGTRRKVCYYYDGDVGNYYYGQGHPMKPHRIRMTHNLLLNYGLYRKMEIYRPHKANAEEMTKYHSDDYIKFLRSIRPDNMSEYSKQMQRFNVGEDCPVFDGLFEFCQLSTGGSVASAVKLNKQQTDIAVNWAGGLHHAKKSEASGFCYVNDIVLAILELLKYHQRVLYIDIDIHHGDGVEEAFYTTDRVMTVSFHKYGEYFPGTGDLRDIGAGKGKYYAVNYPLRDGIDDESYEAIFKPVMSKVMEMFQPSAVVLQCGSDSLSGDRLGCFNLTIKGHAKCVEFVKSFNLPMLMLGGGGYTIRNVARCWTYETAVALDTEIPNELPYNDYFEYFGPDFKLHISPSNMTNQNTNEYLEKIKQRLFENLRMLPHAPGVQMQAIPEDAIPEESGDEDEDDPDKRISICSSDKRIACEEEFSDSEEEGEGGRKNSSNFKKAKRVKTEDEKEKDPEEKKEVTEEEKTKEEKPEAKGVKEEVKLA
# CoREST, sequence (Q13547 whole entry, other chains not shown): as the sequence (Q13547 whole entry) above
# CoREST, sequence (Q9UKL0 86-485 partner limits assumed, other chains not shown): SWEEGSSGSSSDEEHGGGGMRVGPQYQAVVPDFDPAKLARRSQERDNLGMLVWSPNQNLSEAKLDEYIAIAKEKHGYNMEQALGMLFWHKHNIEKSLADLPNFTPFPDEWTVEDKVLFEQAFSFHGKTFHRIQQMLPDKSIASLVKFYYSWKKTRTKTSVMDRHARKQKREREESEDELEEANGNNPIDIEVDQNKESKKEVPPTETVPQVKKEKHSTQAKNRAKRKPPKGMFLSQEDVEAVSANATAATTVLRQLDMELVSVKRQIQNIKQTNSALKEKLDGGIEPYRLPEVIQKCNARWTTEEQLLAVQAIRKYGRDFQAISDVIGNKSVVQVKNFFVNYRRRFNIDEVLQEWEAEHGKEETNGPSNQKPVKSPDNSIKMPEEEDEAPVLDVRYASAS
# MiDAC, sequence (Q13547 whole entry): as the sequence (Q13547 whole entry) above
# MiDAC, sequence (Q6PJG2 628-887 partner limits assumed): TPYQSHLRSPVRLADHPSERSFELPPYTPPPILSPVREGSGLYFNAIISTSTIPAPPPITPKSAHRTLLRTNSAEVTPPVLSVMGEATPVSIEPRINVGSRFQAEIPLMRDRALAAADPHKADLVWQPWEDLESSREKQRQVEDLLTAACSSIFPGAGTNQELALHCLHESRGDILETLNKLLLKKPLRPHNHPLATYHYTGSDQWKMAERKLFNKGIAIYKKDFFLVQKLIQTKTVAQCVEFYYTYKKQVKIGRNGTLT
# MiDAC, sequence (Q9H147 whole entry partner): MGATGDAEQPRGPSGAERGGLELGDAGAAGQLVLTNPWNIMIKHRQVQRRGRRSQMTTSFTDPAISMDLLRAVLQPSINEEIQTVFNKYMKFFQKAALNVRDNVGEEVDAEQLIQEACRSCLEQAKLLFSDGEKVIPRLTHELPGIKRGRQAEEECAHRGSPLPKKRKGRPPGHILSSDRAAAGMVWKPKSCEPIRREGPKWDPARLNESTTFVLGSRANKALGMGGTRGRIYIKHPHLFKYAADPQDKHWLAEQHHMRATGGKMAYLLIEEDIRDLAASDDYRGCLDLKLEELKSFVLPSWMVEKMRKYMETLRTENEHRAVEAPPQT
# NuRD, sequence (Q13547 whole entry): as the sequence (Q13547 whole entry) above
# NuRD, sequence (Q13330 162-546 partner limits assumed): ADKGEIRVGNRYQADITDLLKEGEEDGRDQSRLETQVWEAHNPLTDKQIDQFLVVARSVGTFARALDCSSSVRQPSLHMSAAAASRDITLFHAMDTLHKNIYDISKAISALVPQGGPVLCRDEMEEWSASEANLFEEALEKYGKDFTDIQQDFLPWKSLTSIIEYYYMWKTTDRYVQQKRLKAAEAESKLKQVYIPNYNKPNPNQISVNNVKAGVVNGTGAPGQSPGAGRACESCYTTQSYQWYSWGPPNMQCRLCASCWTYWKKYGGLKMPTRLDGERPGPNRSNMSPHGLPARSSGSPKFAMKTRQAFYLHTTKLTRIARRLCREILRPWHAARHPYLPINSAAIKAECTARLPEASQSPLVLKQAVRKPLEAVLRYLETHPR
# NuRD, sequence (Q09028 whole entry partner): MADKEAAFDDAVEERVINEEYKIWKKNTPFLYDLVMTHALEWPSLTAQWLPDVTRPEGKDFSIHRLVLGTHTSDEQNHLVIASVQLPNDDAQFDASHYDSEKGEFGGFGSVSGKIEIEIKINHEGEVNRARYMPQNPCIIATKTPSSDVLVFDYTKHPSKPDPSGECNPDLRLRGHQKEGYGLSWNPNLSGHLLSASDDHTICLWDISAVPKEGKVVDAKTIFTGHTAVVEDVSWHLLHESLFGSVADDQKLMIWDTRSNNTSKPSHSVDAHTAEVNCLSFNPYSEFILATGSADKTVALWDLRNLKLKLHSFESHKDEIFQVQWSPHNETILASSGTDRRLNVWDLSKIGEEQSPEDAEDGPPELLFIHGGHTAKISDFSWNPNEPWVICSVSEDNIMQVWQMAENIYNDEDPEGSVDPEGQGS
# LSD1-CoREST-HDAC1 complex, sequence (Q13547 whole entry, other chains not shown): as the sequence (Q13547 whole entry) above
# LSD1-CoREST-HDAC1 complex, sequence (Q9UKL0 86-485 partner limits assumed, other chains not shown): as the sequence (Q9UKL0 86-485 partner limits assumed, other chains not shown) above
pIC50 [2],pIC50 [3],pIC50 [4],pIC50 [5],"Dmax [6, 16]","Dmax [7, 16]",Dmax [8],SMILES,Increase H3K56Ac (Y/N/partial) [14],further results
5.42,,,6.07,58%,21%,46%,"Cc1ncsc1-c1ccc(CNC(=O)[C@@H]2C[C@@H](O)CN2C(=O)[C@@H](NC(=O)CCCCCCCCCCC(=O)Nc2ccc(C(=O)Nc3ccc(F)cc3N)cc2)C(C)(C)C)cc1 [PROTAC17, N1-(4-((2-amino-4-fluorophenyl)carbamoyl)phenyl)-N12-((S)-1-((2S,4R)-4-hydroxy-2-((4-(4-methylthiazol-5-yl)benzyl)carbamoyl)pyrrolidin-1-yl)-3,3-dimethyl-1-oxobutan-2-yl)dodecanediamide]",partial,
,,,,51%,26%,67%,"Cc1ncsc1-c1ccc(CNC(=O)[C@@H]2C[C@@H](O)CN2C(=O)[C@@H](NC(=O)COCCCCCCCCCOCC(=O)Nc2ccc(C(=O)Nc3ccc(F)cc3N)cc2)C(C)(C)C)cc1 [PROTAC20, (2S,4R)-1-((S)-2-(2-((9-(2-((4-((2-amino-4-fluorophenyl)carbamoyl)phenyl)amino)-2-oxoethoxy)nonyl)oxy)acetamido)-3,3-dimethylbutanoyl)-4-hydroxy-N-(4-(4-methylthiazol-5-yl)benzyl)pyrrolidine-2-carboxamide]",partial,

# Continued, compound first:
SMILES,pIC50 [2],pIC50 [3],pIC50 [4],pIC50 [5],"Dmax [6, 16]","Dmax [7, 16]",Dmax [8],Increase H3K56Ac (Y/N/partial) [14],further results
"CC(=O)Nc1ccc(C(=O)Nc2ccccc2NC(=O)OC(C)(C)C)cc1 [Compound 5, Tert-butyl (2-(4-acetamidobenzamido)phenyl)carbamate, reference compound]",,,,,,,,,HDAC inhibition ([1]; LSD1-CoREST-HDAC1 complex): no HDAC inhibition
"Cc1ncsc1-c1ccc(CNC(=O)[C@@H]2C[C@@H](O)CN2C(=O)[C@@H](NC(=O)CCCCCCCCCCC(=O)Nc2ccc(C(=O)Nc3ccccc3N)cc2)C(C)(C)C)cc1 [PROTAC4, N1-(4-((2-aminophenyl)carbamoyl)phenyl)-N12-((S)-1-((2S,4R)-4-hydroxy-2-((4-(4-methylthiazol-5-yl)benzyl)carbamoyl)pyrrolidin-1-yl)-3,3-dimethyl-1-oxobutan-2-yl)dodecanediamide]",6.40,6.38,6.47,6.38,85%,76%,63%,,"pIC50 ([1]; LSD1-CoREST-HDAC1 complex in vitro): 4.77; HDAC1 degradation ([6]; HCT116, 24 h, 1 μM): approximately 50%; HDAC1 level (DMSO control = 100%) [6, 15]: 40-48%; HDAC1 degradation ([6]; HCT116, 24 h, 10 μM): near complete degradation; HDAC2 degradation ([7]; HCT116, 24 h, 1 μM): approximately 50%; HDAC2 level (DMSO control = 100%) [7, 15]: 40-48%; HDAC2 degradation ([7]; HCT116, 24 h, 10 μM): near complete degradation; HDAC3 degradation ([8]; HCT116, 24 h, 1 μM): approximately 50%; HDAC3 level (DMSO control = 100%) [8, 15]: 40-48%; HDAC3 levels ([8]; HCT116, 24 h, 10 μM): decreased; H3K56 acetylation level [9]: increase in acetylation to similar levels; H3K9 acetylation levels compared to DMSO control [10]: highly elevated; cell death [11]: significant cell death; HDAC1 levels [12]: not recovered; HDAC2 levels [13]: not recovered"
"Cc1ncsc1-c1ccc(CNC(=O)[C@@H]2C[C@@H](O)CN2C(=O)[C@@H](NC(=O)COCCCCCCCCC(=O)Nc2ccc(C(=O)Nc3ccccc3N)cc2)C(C)(C)C)cc1 [PROTAC13, (2S,4R)-1-((S)-2-(2-((9-((4-((2-aminophenyl)carbamoyl)phenyl)amino)-9-oxononyl)oxy)acetamido)-3,3-dimethylbutanoyl)-4-hydroxy-N-(4-(4-methylthiazol-5-yl)benzyl)pyrrolidine-2-carboxamide]",6.07,5.93,5.84,6.46,58%,52%,69%,,
"CN[C@@H](C)C(=O)N[C@H](C(=O)N1C[C@@H](NC(=O)COCCOCCOCC(=O)Nc2ccc(C(=O)Nc3ccccc3N)cc2)C[C@H]1C(=O)N[C@@H]1CCCc2ccccc21)C1CCCCC1 [PROTAC28, (2S,4S)-4-(2-(2-(2-(2-((4-((2-aminophenyl)carbamoyl)phenyl)amino)-2-oxoethoxy)ethoxy)ethoxy)acetamido)-1-((S)-2-cyclohexyl-2-((S)-2-(methylamino)propanamido)acetyl)-N-((R)-1,2,3,4-tetrahydronaphthalen-1-yl)pyrrolidine-2-carboxamide]",,,,,,,57%,partial,"HDAC1 Degrader (% Degradation) [6, 16]: No; HDAC 2 Degrader (% Degradation) [7, 16]: No"

# From patent US20230120211A1, “HDAC Degrader” (University of Leicester, priority 2020, published 2023)
